Source: patent US20170147743A1, “RAPID IDENTIFICATION OF PHARMACOLOGICAL TARGETS AND ANTI-TARGETS FOR DRUG DISCOVERY AND REPURPOSING” (UNIVERSITY OF MIAMI, priority 2015, published 2017)

Assays:
[1] = tested on: rat embryonic (E18) hippocampal neurons; test: Neurite outgrowth screening assay with hippocampal neurons; assay type: cell-based; conditions: neurite total length as percentage of control; for NTL_32 (neurite outgrowth, % NTL): concentration 32 (unit not given); for NTL_160 (neurite outgrowth, % NTL): concentration 160 (unit not given); for NTL_800 (neurite outgrowth, % NTL): concentration 800 (unit not given); for NTL_4000 (neurite outgrowth, % NTL): concentration 4000 (unit not given); for NTL_20000 (neurite outgrowth, % NTL): concentration 20000 (unit not given)
Source text: Neurite Outgrowth Screening Assay with Hippocampal Neurons. Kinase inhibitor libraries were screened in a neurite outgrowth assay. Compounds were screened on rat embryonic (E18) hippocampal neurons cultured for 2 DIV on poly-D-lysine. Plates were fixed, immunostained, and imaged. Screened compounds were classified based on their effects on neurite total length, expressed as percentage of control (% NTL), which served as the biological activity referenced in FIG. 1, for this example. Hits were defined as compounds whose biologic activity (% NTL) reached at least 130% in two independent experiments (hits: % NTL 130; non-hits: % NTL<130). That is, in this example an NTL of 130 was used as the threshold measure (see, e.g., FIGS. 8 and 9). […] A stratification (assurance) step was performed by eliminating from subsequent analysis compounds that had biologic activity within 1 standard deviation of the hit threshold (130±15) (see, e.g., FIG. 6A). Compounds that reduced viable cell count (biologic activity) by more than 40% at concentrations below 800 nM were considered to be toxic and also excluded from subsequent analysis.

[2] = tested on: representative target kinases; test: Target/anti-target activity matrix from kinase profiling; assay type: biochemical; conditions: FIG. 3B matrix; seven targets
Protocol: (§1) Activity Profiling of Screened Kinase Inhibitors. In vitro profiling of kinase inhibitors against a panel of 190 kinases was performed. Out of bound values were cropped, whereby values below 0% were adjusted to 0%, and values above 100% were adjusted to 100%.
(§2) FIG. 3B illustrates a resultant target-anti-target activity matrix developed by the identification system (e.g., at process 114). The target/anti-target matrix identifies protein target groups separately from protein anti-target groups, where each group type may be ranked according to various factors, such as biologic activity and inhibition bias. Engagement of the protein targets in the matrix promotes a biological activity; and engagement of the protein anti-targets in the matrix impedes the biological activity. In the particular example of FIG. 3B, representative protein kinases for each kinase group and the compounds that inhibit at least one member in the group by ≧10% are shown. […] Compounds are arranged top to bottom in order of decreasing maximum % NTL (right-hand color scale). […] RO0480500-002 accordingly produced % NTL up to 400%, well above the % NTL of any of the other compound. […]

[3] = tested on: representative anti-target kinases; test: as above; assay type: biochemical; conditions: FIG. 3B matrix
Protocol: as §1, §2

inhibition of representative target kinases [2] | inhibition of representative anti-target kinases [3] | SMILES | NTL_32 (neurite outgrowth, % NTL) [1] [%] | NTL_160 (neurite outgrowth, % NTL) [1] [%] | NTL_800 (neurite outgrowth, % NTL) [1] [%] | NTL_4000 (neurite outgrowth, % NTL) [1] [%] | NTL_20000 (neurite outgrowth, % NTL) [1] [%]
 |  | Cl.O=S(=O)(c1cccc2c(I)cccc12)N1CCCNCC1 [ML-7, Hydrochloride] | 193.8632 | 288.4679 | 285.3279 | 269.3169 | 70.23
 |  | NS(=O)(=O)c1cccc(N/C=C2\C(=O)Nc3ccc(S(=O)(=O)Cc4c(Cl)cccc4Cl)cc32)c1 [GSK398099A] | 100.7527 | 86.99 | 91.2121 | 234.4329 | 357.738
inhibits the two target kinases | does not inhibit any | COc1cc(N2CCC(N3CCN(C)CC3)CC2)ccc1Nc1ncnc(Nc2ccccc2S(=O)(=O)C(C)C)n1 [ASP3026] |  |  |  |  | 
 |  | N#Cc1ccc(-c2cc(-c3c[nH]nc3-c3ccccn3)ccn2)cc1 [GW693028X] | 114.3254 | 101.7908 | 99.07 | 110.3241 | 296.1224
 |  | NC[C@H](CC1CCCCC1)NC(=O)c1ccc(-c2ccnc3[nH]ccc23)s1 [GSK1581428A] | 229.399 | 335.5001 | 262.488 | 92.84 | 36.79
 |  | c1ccc(-c2cnc(Nc3ccc(OCCN4CCCC4)cc3)s2)cc1 [Flt-3 Inhibitor III] | 227.0293 | 250.8023 | 291.5283 | 105.129 | 48.44
 |  | N#CC(=C(N)Sc1ccc(N)cc1)c1ccccc1C(F)(F)F [MEK1/2 Inhibitor] | 109.3381 | 101.2957 | 104.668 | 120.1756 | 286.068
